Measured values taken from patent US10590140B2, “Tetrahydropyrimidodiazepine and dihydropyridodiazepine compounds for treating pain and pain related conditions” (ESTEVE PHARMACEUTICALS, S.A., priority 2016, dated 2020).
Read-outs that look alike come from different tables or passages of the source.

Experiments:
[1] = biological target: human norepinephrine transporter (NET) (Homo sapiens (Human), UniProt P23975); assay: Binding assay to human norepinephrine transporter (NET) ([3H]-Nisoxetin); conditions: Table 2, dual compounds; [3H]-Nisoxetin binding
Description: Binding Assay to Human Norepinephrine Transporter (NET).
Human norepinephrine transporter (NET) enriched membranes (5 μg) were incubated with 5 nM of radiolabeled [3H]-Nisoxetin in assay buffer containing 50 mM Tris-HCl, 120 mM NaCl, 5 mM KCl, pH 7.4.
NSB (non specific binding) was measured by adding 1 μM. After 60 min incubation at 4° C., binding reaction was terminated by filtering through Multiscreen GF/C (Millipore) presoaked in 0.5% polyethyleneimine in Vacuum Manifold Station, followed by 3 washes with ice-cold filtration buffer containing 50 mM Tris-HCl, 0.9% NaCl, pH 7.4.
Filter plates were dried at 60° C. for 1 hour and 30 μl of scintillation cocktail were added to each well before radioactivity reading.

[2] = biological target: human α2δ-1 subunit of Cav2.2 calcium channel (Homo sapiens (Human), UniProt P54289); assay: Binding assay to human α2δ-1 subunit of Cav2.2 calcium channel ([3H]-Gabapentin); conditions: read-out: Ki (nM) α2δ-1
Procedure, shortened: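 [3H]-gabapentin binding, 60 min at 27° C; nonspecific binding defined with 10 μM pregabalin. Terminated by filtration on PEI-presoaked GF/C filters, ice-cold 50 mM Tris-HCl pH 7.4 washes, then scintillation counting.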

[3] = Table 2, dual compounds, [3H]-Gabapentin binding
[4] = binding to α2δ-1, [3H]-Gabapentin

human norepinephrine transporter (NET), sequence (P23975 whole entry): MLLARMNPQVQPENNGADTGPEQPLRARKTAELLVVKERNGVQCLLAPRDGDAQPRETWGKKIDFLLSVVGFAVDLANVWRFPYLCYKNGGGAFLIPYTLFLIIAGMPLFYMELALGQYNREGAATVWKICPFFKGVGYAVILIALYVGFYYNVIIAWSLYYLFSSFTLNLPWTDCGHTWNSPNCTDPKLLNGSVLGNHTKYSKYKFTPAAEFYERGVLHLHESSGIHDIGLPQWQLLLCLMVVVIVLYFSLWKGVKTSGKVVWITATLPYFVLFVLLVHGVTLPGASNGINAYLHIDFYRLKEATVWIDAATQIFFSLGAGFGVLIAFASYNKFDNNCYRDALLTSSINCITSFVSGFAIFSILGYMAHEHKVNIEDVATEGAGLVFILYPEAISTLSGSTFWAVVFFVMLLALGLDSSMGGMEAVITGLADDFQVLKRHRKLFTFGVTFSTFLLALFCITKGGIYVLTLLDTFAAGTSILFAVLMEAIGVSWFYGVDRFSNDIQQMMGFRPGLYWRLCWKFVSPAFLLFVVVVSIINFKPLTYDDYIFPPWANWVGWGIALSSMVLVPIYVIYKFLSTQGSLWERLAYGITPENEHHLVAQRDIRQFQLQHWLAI
human α2δ-1 subunit of Cav2.2 calcium channel, sequence (P54289 25-1103): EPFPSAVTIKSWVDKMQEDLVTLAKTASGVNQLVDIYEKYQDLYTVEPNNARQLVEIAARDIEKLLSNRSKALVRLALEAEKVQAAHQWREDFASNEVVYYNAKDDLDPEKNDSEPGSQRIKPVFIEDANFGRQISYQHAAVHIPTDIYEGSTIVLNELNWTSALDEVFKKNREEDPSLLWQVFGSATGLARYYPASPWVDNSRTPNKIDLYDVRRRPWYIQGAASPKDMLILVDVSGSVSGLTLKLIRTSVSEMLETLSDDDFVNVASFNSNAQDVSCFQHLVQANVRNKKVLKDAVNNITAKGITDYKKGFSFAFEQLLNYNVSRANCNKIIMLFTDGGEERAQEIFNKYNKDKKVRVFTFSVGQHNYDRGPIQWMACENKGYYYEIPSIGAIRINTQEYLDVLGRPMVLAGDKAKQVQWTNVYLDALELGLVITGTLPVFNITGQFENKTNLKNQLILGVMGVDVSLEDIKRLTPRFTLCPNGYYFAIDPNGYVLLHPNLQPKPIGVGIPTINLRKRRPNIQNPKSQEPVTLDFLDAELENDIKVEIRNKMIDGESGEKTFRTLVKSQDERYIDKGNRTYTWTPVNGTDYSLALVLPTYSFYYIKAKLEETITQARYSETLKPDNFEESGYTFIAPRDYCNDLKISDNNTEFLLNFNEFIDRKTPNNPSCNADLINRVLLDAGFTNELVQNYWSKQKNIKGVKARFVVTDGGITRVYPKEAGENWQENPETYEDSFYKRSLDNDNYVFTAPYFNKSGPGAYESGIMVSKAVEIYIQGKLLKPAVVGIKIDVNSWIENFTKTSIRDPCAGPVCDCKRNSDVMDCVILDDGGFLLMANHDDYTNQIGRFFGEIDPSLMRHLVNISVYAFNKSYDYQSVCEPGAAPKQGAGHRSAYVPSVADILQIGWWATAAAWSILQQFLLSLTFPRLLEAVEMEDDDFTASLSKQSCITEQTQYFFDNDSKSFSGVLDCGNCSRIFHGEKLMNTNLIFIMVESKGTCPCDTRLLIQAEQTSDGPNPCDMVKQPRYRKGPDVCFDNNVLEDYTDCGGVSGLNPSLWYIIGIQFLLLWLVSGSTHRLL

SMILES | Ki [1] [nM] | Ki [2, 3] [nM] | Ki [2, 4] [nM]
CNCC[C@@H](OCc1cccc(N2CCN(C)c3ncncc3C2=O)c1)c1ccccc1 [Example 207, (R)-9-methyl-6-(3-((3-(methylamino)-1-phenylpropoxy)methyl)phenyl)-6,7,8,9-tetrahydro-5H-pyrimido[4,5-e][1,4]diazepin-5-one] | 500 to 1000 | 500 to 3000 | 500 to 3000
CCNc1cc2c(cn1)C(=O)N(c1cccc(COC(CCNC)c3ccccc3)c1)CCN2C (stereo not drawn) [Example 199, 8-(ethylamino)-1-methyl-4-(3-((3-(methylamino)-1-phenylpropoxy)methyl)phenyl)-1,2,3,4-tetrahydro-5H-pyrido[4,3-e][1,4]diazepin-5-one] | > 1000 | 500 to 3000 | 500 to 3000
CCNc1ncc2c(n1)N(C)CCN(c1cccc(CO[C@H](CCN(C)C)c3ccccc3)c1)C2=O [Example 236, (R)-6-(3-((3-(Dimethylamino)-1-phenylpropoxy)methyl)phenyl)-2-(ethylamino)-9-methyl-6,7,8,9-tetrahydro-5H-pyrimido[4,5-e][1,4]diazepin-5-one] | 500 to 1000 | 500 to 3000 | 500 to 3000
CNCC[C@@H](OCc1cccc(N2CCN(C)c3nc(SC)ncc3C2=O)c1)c1ccccc1 [Example 164, (R)-9-methyl-6-(3-((3-(methylamino)-1-phenylpropoxy)methyl)phenyl)-2-(methylthio)-6,7,8,9-tetrahydro-5H-pyrimido[4,5-e][1,4]diazepin-5-one] | 100 to 500 | 100 to 500 | 100 to 500
CNC(COCc1cccc(N2CCN(C)c3nc(SC)ncc3C2=O)c1)c1ccccc1 (stereo not drawn) [Example 167, 9-methyl-6-(3-((2-(methylamino)-2-phenylethoxy)methyl)phenyl)-2-(methylthio)-6,7,8,9-tetrahydro-5H-pyrimido[4,5-e][1,4]diazepin-5-one] | > 1000 | > 3000 | > 3000
CCNc1cc2c(cn1)C(=O)N(Cc1ccc(O[C@@H](CCNC)c3cccs3)cc1)CCN2C [Example 383, (S)-8-(ethylamino)-1-methyl-4-(4-(3-(methylamino)-1-(thiophen-2-yl)propoxy)benzyl)-1,2,3,4-tetrahydro-5H-pyrido[4,3-e][1,4]diazepin-5-one] | 100 to 500 | 100 to 500 | 100 to 500
CCc1ncc2c(n1)N(C)CCN(c1cccc(COC(CCNC)c3ccccc3)c1)C2=O (stereo not drawn) [Example 354, 2-ethyl-9-methyl-6-(3-((3-(methylamino)-1-phenylpropoxy)methyl)phenyl)-6,7,8,9-tetrahydro-5H-pyrimido[4,5-e][1,4]diazepin-5-one] | 100 to 500 | 500 to 3000 | 500 to 3000
CNCC[C@H](OCc1cccc(N2CCN(C)c3nc(SC)ncc3C2=O)c1)c1cccs1 [Example 210, (S)-9-methyl-6-(3-((3-(methylamino)-1-(thiophen-2-yl)propoxy)methyl)phenyl)-2-(methylthio)-6,7,8,9-tetrahydro-5H-pyrimido[4,5-e][1,4]diazepin-5-one] | 100 to 500 | > 3000 | > 3000
CNCC[C@H](Oc1ccc(CN2CCN(C)c3cc(N)ncc3C2=O)cc1)c1cccs1 [Example 305, (S)-8-amino-1-methyl-4-(4-(3-(methylamino)-1-(thiophen-2-yl)propoxy)benzyl)-1,2,3,4-tetrahydro-5H-pyrido[4,3-e][1,4]diazepin-5-one] | 100 to 500 | 100 to 500 | 100 to 500

Continued, values first:

Ki [1] [nM] | Ki [2, 3] [nM] | Ki [2, 4] [nM] | SMILES
100 to 500 | 100 to 500 | 100 to 500 | CCNc1ncc2c(n1)N(C)CCN(c1cccc(-n3cc(CNCC4CC4)nn3)c1)C2=O [Example 285, 6-(3-(4-(((cyclopropylmethyl)amino)methyl)-1H-1,2,3-triazol-1-yl)phenyl)-2-(ethylamino)-9-methyl-6,7,8,9-tetrahydro-5H-pyrimido[4,5-e][1,4]diazepin-5-one]
100 to 500 | 500 to 3000 | 500 to 3000 | CCNc1ncc2c(n1)N(C)CCN(c1cccc(OC(CNC)c3ccccc3)c1)C2=O (stereo not drawn) [Example 154, 2-(ethylamino)-9-methyl-6-(3-(2-(methylamino)-1-phenylethoxy)phenyl)-6,7,8,9-tetrahydro-5H-pyrimido[4,5-e][1,4]diazepin-5-one]
100 to 500 | 100 to 500 | 100 to 500 | CNCCC(Oc1ccc(CN2CCN(C)c3ccncc3C2=O)cc1)c1cccs1 (stereo not drawn) [Example 381, 1-methyl-4-(4-(3-(methylamino)-1-(thiophen-2-yl)propoxy)benzyl)-1,2,3,4-tetrahydro-5H-pyrido[4,3-e][1,4]diazepin-5-one]
100 to 500 | 100 to 500 | 100 to 500 | CNCC[C@@H](OCc1cccc(N2CCN(C)c3nc(NCc4ccccn4)ncc3C2=O)c1)c1ccccc1 [Example 343, (R)-9-methyl-6-(3-((3-(methylamino)-1-phenylpropoxy)methyl)phenyl)-2-((pyridin-2-ylmethyl)amino)-6,7,8,9-tetrahydro-5H-pyrimido[4,5-e][1,4]diazepin-5-one]
100 to 500 | > 3000 | > 3000 | CNCCC(OCc1cccc(CN2CCN(C)c3nc(SC)ncc3C2=O)c1)c1ccccc1 (stereo not drawn) [Example 367, 9-methyl-6-(3-((3-(methylamino)-1-phenylpropoxy)methyl)benzyl)-2-(methylthio)-6,7,8,9-tetrahydro-5H-pyrimido[4,5-e][1,4]diazepin-5-one]
< 100 | 500 to 3000 | 500 to 3000 | CNCCC(Oc1cccc(N2CCN(C)c3nc(SC)ncc3C2=O)c1)c1ccccc1 (stereo not drawn) [Example 151, 9-methyl-6-(3-(3-(methylamino)-1-phenylpropoxy)phenyl)-2-(methylthio)-6,7,8,9-tetrahydro-5H-pyrimido[4,5-e][1,4]diazepin-5-one]
100 to 500 | > 3000 | > 3000 | CNCC(OCc1cccc(CN2CCN(C)c3nc(SC)ncc3C2=O)c1)c1ccccc1 (stereo not drawn) [Example 372, 9-methyl-6-(3-((2-(methylamino)-1-phenylethoxy)methyl)benzyl)-2-(methylthio)-6,7,8,9-tetrahydro-5H-pyrimido[4,5-e][1,4]diazepin-5-one]
< 100 | 500 to 3000 | 500 to 3000 | CCNc1ncc2c(n1)N(C)CCN(c1cccc(-n3cc(CN4CCC(c5ccccc5)CC4)nn3)c1)C2=O [Example 278, 2-(Ethylamino)-9-methyl-6-(3-(4-((4-phenylpiperidin-1-yl)methyl)-1H-1,2,3-triazol-1-yl)phenyl)-6,7,8,9-tetrahydro-5H-pyrimido[4,5-e][1,4]diazepin-5-one]
< 100 | 500 to 3000 | 500 to 3000 | CCc1ncc2c(n1)N(C)CCN(Cc1ccc(OC(CCNC)c3ccccc3)cc1)C2=O (stereo not drawn) [Example 426, 2-ethyl-9-methyl-6-(4-(3-(methylamino)-1-phenylpropoxy)benzyl)-6,7,8,9-tetrahydro-5H-pyrimido[4,5-e][1,4]diazepin-5-one]
< 100 | > 3000 | > 3000 | CNCCC(OCc1ccc(N2CCN(C)c3nc(SC)ncc3C2=O)cc1)c1cccs1 (stereo not drawn) [Example 328, 9-methyl-6-(4-((3-(methylamino)-1-(thiophen-2-yl)propoxy)methyl)phenyl)-2-(methylthio)-6,7,8,9-tetrahydro-5H-pyrimido[4,5-e][1,4]diazepin-5-one]
